Assay results as given in US20260308159A1, “BICYCLIC HETEROARYLAMIDES HAVING GPR68 MODULATING ACTIVITY” (RECURSION PHARMACEUTICALS, INC., priority 2023, published 2026).

target: T1, human GPR68 (Homo sapiens, UniProt Q15743); assay: GPR68 Biochemical Assay (Promega GloSensor cAMP assay, GPR68 antagonism); type: cell-based; conditions: HEK293T cells transiently expressing hGPR68, antagonism of pH 5.5 stimulated cAMP, 15 min, read-out: hGPR68 IC50
T1 construct: encoding full-length human GPR68 (uniprot ID: Q15743); expressed in transfected cells; host or cells: HEK293T
Method: GPR68 antagonism was determined using the Promega GloSensor™ CAMP assay (F. I. Wang et al., Methods 2021, S1046-2023 (21) 00249-8). HEK293T cells (obtained from ECACC, Cat 12022001, Lot no. 17E044) were cultured in T175 flasks (Greiner, Cat 660175) in DMEM (Gibco, Cat 11995-065) supplemented with 10% Fetal Bovine Serum (Gibco Cat 16000-044), and 100 u/mL Pen-Strep (Gibco, Cat 15140) at 37° C. and 5% CO2. GPR68 expression was achieved by transient transfection with a mammalian expression plasmid encoding full-length human GPR68 (uniprot ID: Q15743) under control of a CMV promoter. The day before transfection, cell media was aspirated and HEK293T cells were incubated with accutase (Sigma, Cat A6964) for 3-4 minutes 37° C. and 5% CO2 before being manually detached with excess DMEM and trituration. Cell density was determined by automated cell counting (Countess, Invitrogen) and adjusted to 6×10^6 cells/20 mL and transferred to 15 cm dishes (Thermo Fisher, Cat 130183) for overnight incubation at 37° C. and 5% CO2. The next day separate mammalian expression plasmids encoding hGPR68 (4 μg) and Promega GloSensor (8 μg) were diluted to 1 mL in Opti-MEM (Thermo Fisher Scientific, Cat 31985070) and incubated with 30 μL of lipofectamine 3000 (also diluted to 1 mL in Opti-MEM) for 15 minutes at room temperature and subsequently added dropwise to the plated cells. Post transfection cells were then incubated at 37° C. and 5% CO2 for at least 16 hours before transfer to assay plates the following day. Transfer was conducted by washing cells with PBS and incubating with accutase for 3-4 minutes 37° C. and 5% CO2 before being manually detached with excess DMEM and mild trituration. The suspension was then centrifuged at 192 RCF for 4 minutes in a 50 mL centrifuge tube (Greiner, Cat 227261).
Supernatant was removed by aspiration and the cell pellet was resuspended in DMEM+1% dialysed FBS (Gibco, Cat 26400-044) and 100 u/mL Pen-Strep to a cell density of 500 cells/μL. Cells were plated into poly-L-Lysine coated 384-well white assay plates (Corning, Cat 3570) at a final volume of 40 µL and a density of 20,000 cells/well before overnight incubation at 37° C. and 5% CO2. The following day media was manually ejected from the 384-well assay plate and replaced with 10 μL GloSensor substrate (Promega, Cat E1291) prepared in pH 8.0 assay buffer (1×HBSS, 10 mM HEPES, 10 mM MOPS). Cells were incubated with this solution for 60 minutes at room temperature in the dark. Test compounds or an equivalent volume of DMSO (vehicle) were added to compounds plates to create a 9-point, half-log concentration series for each compound with a maximum final assay concentration of 50 μM and a consistent final DMSO concentration of 0.5%. Assay buffer with 0.1% BSA and 0.01% ascorbic acid was prepared at three pHs: pH 8.0, pH 5.5 and pH 4.5. pH 8.0 and 4.5 were added to the compound plate as maximum and minimum effect controls whilst pH 5.5 was added to all compound wells to stimulate GPR68 to a level corresponding to […] of maximal stimulation after addition to the cells already in pH 8.0 (assay acceptance criteria range 70-90%). DMSO/Compound and buffer was added to the plated cells containing the GloSensor substrate and incubated for 15 minutes at room temperature before being read on a microplate reader (BMG PHERAstar, optic module LUM Plus with Gain 3600). Data was exported and analysed in excel and Graphpad prism (version 9). Assay QC acceptance criteria required the maximum and minimum controls to return a Z′≥0.5, the EC80 to be 80%±10% of expected and the reference ligand pIC50 to be within one-half-log unit of its historical IC50. Percent inhibition was calculated using the mean EC80 (pH 5.5) and mean minimum effect control (pH 8.0). Data were plotted as percentage inhibition, average±SEM. IC50, Emax, Emin, Actual max, actual min, R^2 and fit confidence were calculated using Graphpad Prism's sigmoidal dose-response function.

T1 sequence (Q15743 whole entry): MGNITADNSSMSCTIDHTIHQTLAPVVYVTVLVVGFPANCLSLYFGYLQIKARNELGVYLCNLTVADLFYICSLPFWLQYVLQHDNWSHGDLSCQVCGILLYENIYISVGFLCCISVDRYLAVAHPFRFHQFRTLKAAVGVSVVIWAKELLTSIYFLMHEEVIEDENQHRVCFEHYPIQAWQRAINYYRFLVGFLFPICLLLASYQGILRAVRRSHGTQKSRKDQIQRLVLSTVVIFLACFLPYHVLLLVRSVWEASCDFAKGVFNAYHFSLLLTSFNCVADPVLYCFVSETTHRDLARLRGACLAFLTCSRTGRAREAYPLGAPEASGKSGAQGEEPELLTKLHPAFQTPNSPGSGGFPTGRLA

First: CNC(=O)c1c(-c2ccccc2)nn2c(C(=O)NC3Cc4ccccc4C3)cccc12 [Compound 40, N7-indan-2-yl-N3-methyl-2-phenyl-pyrazolo[1,5-a]pyridine-3,7-dicarboxamide]
Second: NC(=O)c1cnn2c(C(=O)NC3Cc4ccccc4C3)ccnc12 [Compound 1, N7-indan-2-ylpyrazolo[1,5-a]pyrimidine-3,7-dicarboxamide]
The IC50 of the first is higher: 50000 to 100000 nM for the first, 50 to 500 nM for the second.

`COCc1nn2c(C(=O)N[C@H]3C[C@@H](OC(F)(F)F)C3)cc(C)nc2c1C(N)=O` [Compound 206, 2-(methoxymethyl)-5-methyl-N7-[cis-3-(trifluoromethoxy)cyclobutyl]pyrazolo[1,5-a]pyrimidine-3,7-dicarboxamide] and `Cc1nn2c(C(=O)N[C@H]3C[C@@H](OC(F)(F)F)C3)ccnc2c1C(N)=O` [Compound 53, 2-methyl-N7-[cis-3-(trifluoromethoxy)cyclobutyl]pyrazolo[1,5-a]pyrimidine-3,7-dicarboxamide] fall in the same range of IC50: 50 to 500 nM for the first, 50 to 500 nM for the second.

`NC(=O)c1c(C2CC2)nc2c(C(=O)NC3Cc4cccnc4C3)ccnn12` (stereo not drawn) [Compound 163, 2-cyclopropyl-N8-(6,7-dihydro-5H-cyclopenta[b]pyridin-6-yl) imidazo[1,2-b]pyridazine-3,8-dicarboxamide] and `NC(=O)c1c(C2CC2)nn2c(C(=O)NC3Cc4cccnc4C3)ccnc12` (stereo not drawn) [Compound 115, 2-cyclopropyl-N7-(6,7-dihydro-5H-cyclopenta[b]pyridin-6-yl)pyrazolo[1,5-a]pyrimidine-3,7-dicarboxamide] cannot be ordered by IC50: under 50 nM for the first, under 50 nM for the second.

Compared with `NC(=O)c1cnn2c(C(=O)NC3CC4(CCOCC4)C3)ccnc12` [Compound 12, N7-(7-oxaspiro[3.5]nonan-2-yl)pyrazolo[1,5-a]pyrimidine-3,7-dicarboxamide], `NC(=O)c1cnn2c(C(=O)NC3CNc4ccccc4C3)ccnc12` (stereo not drawn) [Compound 5, N7-(1,2,3,4-tetrahydroquinolin-3-yl)pyrazolo[1,5-a]pyrimidine-3,7-dicarboxamide] is lower in IC50: 50000 to 100000 nM for the first, 500 to 5000 nM for the second.

`COCc1nn2c(C(=O)NC3CCC34CC(F)(F)C4)ccnc2c1C(N)=O` (stereo not drawn) [Compound 131, N7-(2,2-difluorospiro[3.3]heptan-7-yl)-2-(methoxymethyl)pyrazolo[1,5-a]pyrimidine-3,7-dicarboxamide] and `COCc1nn2c(C(=O)NC3(C)CC4(CC(F)(F)C4)C3)ccnc2c1C(N)=O` [Compound 124, N7-(2,2-difluoro-6-methyl-spiro[3.3]heptan-6-yl)-2-(methoxymethyl)pyrazolo[1,5-a]pyrimidine-3,7-dicarboxamide] fall in the same range of IC50: 500 to 5000 nM for the first, 500 to 5000 nM for the second.

`CSCc1nn2c(C(=O)N[C@H]3C[C@@H](OC(F)(F)F)C3)ccnc2c1C(N)=O` [Compound 217, 2-(methylsulfanylmethyl)-N7-[cis-3-(trifluoromethoxy)cyclobutyl]pyrazolo[1,5-a]pyrimidine-3,7-dicarboxamide] and `NC(=O)c1c(COC2CC2)nn2c(C(=O)N[C@H]3C[C@@H](OC(F)(F)F)C3)ccnc12` [Compound 216, 2-(cyclopropoxymethyl)-N7-[cis-3-(trifluoromethoxy)cyclobutyl]pyrazolo[1,5-a]pyrimidine-3,7-dicarboxamide] cannot be ordered by IC50: under 50 nM for the first, under 50 nM for the second.

Compared with `COCc1nn2c(C(=O)N[C@@H]3CCS(=O)(=O)c4ccccc43)ccnc2c1C(N)=O` [Compound 233, N7-[(4R)-1,1-dioxo-3,4-dihydro-2H-thiochromen-4-yl]-2-(methoxymethyl)pyrazolo[1,5-a]pyrimidine-3,7-dicarboxamidfe], `COCc1nn2c(C(=O)NC3CCC(C)(C)c4ccccc43)ccnc2c1C(N)=O` (stereo not drawn) [Compound 186, N7-(4,4-dimethyltetralin-1-yl)-2-(methoxymethyl)pyrazolo[1,5-a]pyrimidine-3,7-dicarboxamide] is higher in IC50: under 50 nM for the first, 500 to 5000 nM for the second. The first is the more potent here.

First: COc1ccc2[nH]c(C(C)NC(=O)c3ccnc4c(C(N)=O)cnn34)nc2c1 (stereo not drawn) [Compound 98, N7-[1-(5-methoxy-1H-1,3-benzodiazol-2-yl)ethyl]pyrazolo[1,5-a]pyrimidine-3,7-dicarboxamide]
Second: COCc1nn2c(C(=O)N[C@H]3CCOc4cc(F)ccc43)ccnc2c1C(N)=O [Compound 123, 2-(methoxymethyl)-N7-[(4S)-7-fluorochroman-4-yl]pyrazolo[1,5-a]pyrimidine-3,7-dicarboxamide]
The IC50 of the first is higher: 5000 to 50000 nM for the first, under 50 nM for the second. The second is the more potent here.

`COCc1nc2c(C(=O)NC3CC(F)(F)c4ccccc43)ccnn2c1C(N)=O` (stereo not drawn) [Compound 107, N8-(3,3-difluoroindan-1-yl)-2-(methoxymethyl)imidazo[1,2-b]pyridazine-3,8-dicarboxamide] and `NC(=O)c1c(C2CC2)nc2c(C(=O)NC3CC(F)(F)c4ccccc43)ccnn12` (stereo not drawn) [Compound 209, 2-cyclopropyl-N8-(3,3-difluoroindan-1-yl)imidazo[1,2-b]pyridazine-3,8-dicarboxamide] cannot be ordered by IC50: under 50 nM for the first, under 50 nM for the second.

First: COCc1nn2c(C(=O)NCC3(N(C)C)CCCCC3)ccnc2c1C(N)=O [Compound 90, N7-[[1-(dimethylamino)cyclohexyl]methyl]-2-(methoxymethyl)pyrazolo[1,5-a]pyrimidine-3,7-dicarboxamide]
Second: COCc1nn2c(C(=O)NC3Cc4cc(F)c(F)cc4C3)ccnc2c1C(N)=O [Compound 195, N7-(5,6-difluoroindan-2-yl)-2-(methoxymethyl)pyrazolo[1,5-a]pyrimidine-3,7-dicarboxamide]
The IC50 of the first is higher: 50000 to 100000 nM for the first, under 50 nM for the second.

First: CS(=O)(=O)Cc1nn2c(C(=O)NC3Cc4ccccc4C3)ccnc2c1C(N)=O [Compound 215, N7-indan-2-yl-2-(methylsulfonylmethyl)pyrazolo[1,5-a]pyrimidine-3,7-dicarboxamide]
Second: CN1CC(c2nn3c(C(=O)NC4Cc5ccccc5C4)ccnc3c2C(N)=O)C1 [Compound 24, N7-indan-2-yl-2-(1-methylazetidin-3-yl)pyrazolo[1,5-a]pyrimidine-3,7-dicarboxamide]
The IC50 of the first is lower: 50 to 500 nM for the first, 50000 to 100000 nM for the second.

First: COCc1nn2c(C(=O)NC3COc4c(F)cc(F)cc43)ccnc2c1C(N)=O (stereo not drawn) [Compound 191, N7-(5,7-difluoro-2,3-dihydrobenzofuran-3-yl)-2-(methoxymethyl)pyrazolo[1,5-a]pyrimidine-3,7-dicarboxamide]
Second: CN(C)c1nn2c(C(=O)NC3CC(F)(F)C3)ccnc2c1C(N)=O [Compound 35, N7-(3,3-difluorocyclobutyl)-2-(dimethylamino)pyrazolo[1,5-a]pyrimidine-3,7-dicarboxamide]
The IC50 of the first is lower: under 50 nM for the first, 500 to 5000 nM for the second.

With `CN(C)CCNc1nn2c(C(=O)NC3Cc4ccccc4C3)ccnc2c1C(N)=O` [Compound 23, 2-[2-(dimethylamino)ethylamino]-N7-indan-2-yl-pyrazolo[1,5-a]pyrimidine-3,7-dicarboxamide] the IC50 was 50000 to 100000 nM.

same assay, conditions: hGPR68 IC50, HEK293T cells transiently expressing hGPR68, antagonism of pH 5.5 stimulated cAMP, 15 min

Compared with `NC(=O)c1c(C2CCCO2)nn2c(C(=O)NC3Cc4ccccc4C3)ccnc12` (stereo not drawn) [Compound 44, N7-indan-2-yl-2-tetrahydrofuran-2-yl-pyrazolo[1,5-a]pyrimidine-3,7-dicarboxamide], `COCc1cc(C(=O)NC2CC(F)(F)C2)n2nc(C)c(C(N)=O)c2n1` [Compound 39, N7-(3,3-difluorocyclobutyl)-5-(methoxymethyl)-2-methyl-pyrazolo[1,5-a]pyrimidine-3,7-dicarboxamide] is higher in IC50: 50 to 500 nM for the first, 500 to 5000 nM for the second.
